Test results reported in ChEMBL document CHEMBL1909046, “DrugMatrix in vitro pharmacology data”.
pIC50, pKi: −log10 of the molar value.

Columns and labels:
[1] = DRUGMATRIX: Tumor Necrosis Factor (TNF), Non-Selective radioligand binding (ligand: [125I] TNF-alpha); type: cell membranes, Membrane; details: u-937; Not Active = under 50% inhibition at 10 µM
[2] = target: Tyrosine-protein kinase Lck (Homo sapiens, UniProt P06239); test: DRUGMATRIX: Protein Tyrosine Kinase, LCK enzyme inhibition (substrate: Poly(Glu:Tyr)); type: cell-based, Insect cells; details: insect cells; Not Active = under 50% inhibition at 10 µM
Cannabinoid receptor 1 = Cannabinoid receptor 1 (Homo sapiens, UniProt P21554); type: cell membranes, Chem-1, Membrane; details: chem-1; further: in other assays of this panel Not Active means under 50% inhibition at 10 µM
[3] = target: Delta-type opioid receptor (Homo sapiens, UniProt P41143); type: cell membranes, HEK293, Membrane; details: hek293; further: in other assays of this panel Not Active means under 50% inhibition at 10 µM
Adenosine receptor A3 = target: T1, Adenosine receptor A3 (Homo sapiens, UniProt P0DMS8); type: cell membranes, CHO-K1, Membrane; details: for IC50: cho-k1;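 on all read-outs here: radioligand binding assay with AB-MECA serving as the labeled ligand; in other assays of this panel Not Active means under 50% inhibition at 10 µM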
T1 sequence (P0DMS8 whole entry): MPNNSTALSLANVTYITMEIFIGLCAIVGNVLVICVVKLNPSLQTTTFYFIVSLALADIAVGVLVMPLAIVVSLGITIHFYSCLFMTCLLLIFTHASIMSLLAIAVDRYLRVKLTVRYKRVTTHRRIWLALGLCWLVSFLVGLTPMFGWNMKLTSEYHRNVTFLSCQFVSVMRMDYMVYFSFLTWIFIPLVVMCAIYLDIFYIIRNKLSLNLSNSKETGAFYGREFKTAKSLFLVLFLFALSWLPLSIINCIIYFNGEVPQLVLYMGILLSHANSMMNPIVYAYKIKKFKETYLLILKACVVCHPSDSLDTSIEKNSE

[4] = DRUGMATRIX: Atrial Natriuretic Factor (ANF) radioligand binding (ligand: [125I] ANF (rat)); type: cell membranes, Cavia porcellus, Dunkin-Hartley, Adrenal gland, Membrane; details: Not Active = under 50% inhibition at 10 µM
[5] = target: T2, Angiotensin-converting enzyme (Oryctolagus cuniculus, UniProt P12822); test: biochemical; type: tissue-based, Lung;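 further: enzymatic inhibition of angiotensin-converting enzyme measured with FAPGG as the substrate; in other assays of this panel Not Active means under 50% inhibition at 10 µM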
T2 sequence (P12822 whole entry): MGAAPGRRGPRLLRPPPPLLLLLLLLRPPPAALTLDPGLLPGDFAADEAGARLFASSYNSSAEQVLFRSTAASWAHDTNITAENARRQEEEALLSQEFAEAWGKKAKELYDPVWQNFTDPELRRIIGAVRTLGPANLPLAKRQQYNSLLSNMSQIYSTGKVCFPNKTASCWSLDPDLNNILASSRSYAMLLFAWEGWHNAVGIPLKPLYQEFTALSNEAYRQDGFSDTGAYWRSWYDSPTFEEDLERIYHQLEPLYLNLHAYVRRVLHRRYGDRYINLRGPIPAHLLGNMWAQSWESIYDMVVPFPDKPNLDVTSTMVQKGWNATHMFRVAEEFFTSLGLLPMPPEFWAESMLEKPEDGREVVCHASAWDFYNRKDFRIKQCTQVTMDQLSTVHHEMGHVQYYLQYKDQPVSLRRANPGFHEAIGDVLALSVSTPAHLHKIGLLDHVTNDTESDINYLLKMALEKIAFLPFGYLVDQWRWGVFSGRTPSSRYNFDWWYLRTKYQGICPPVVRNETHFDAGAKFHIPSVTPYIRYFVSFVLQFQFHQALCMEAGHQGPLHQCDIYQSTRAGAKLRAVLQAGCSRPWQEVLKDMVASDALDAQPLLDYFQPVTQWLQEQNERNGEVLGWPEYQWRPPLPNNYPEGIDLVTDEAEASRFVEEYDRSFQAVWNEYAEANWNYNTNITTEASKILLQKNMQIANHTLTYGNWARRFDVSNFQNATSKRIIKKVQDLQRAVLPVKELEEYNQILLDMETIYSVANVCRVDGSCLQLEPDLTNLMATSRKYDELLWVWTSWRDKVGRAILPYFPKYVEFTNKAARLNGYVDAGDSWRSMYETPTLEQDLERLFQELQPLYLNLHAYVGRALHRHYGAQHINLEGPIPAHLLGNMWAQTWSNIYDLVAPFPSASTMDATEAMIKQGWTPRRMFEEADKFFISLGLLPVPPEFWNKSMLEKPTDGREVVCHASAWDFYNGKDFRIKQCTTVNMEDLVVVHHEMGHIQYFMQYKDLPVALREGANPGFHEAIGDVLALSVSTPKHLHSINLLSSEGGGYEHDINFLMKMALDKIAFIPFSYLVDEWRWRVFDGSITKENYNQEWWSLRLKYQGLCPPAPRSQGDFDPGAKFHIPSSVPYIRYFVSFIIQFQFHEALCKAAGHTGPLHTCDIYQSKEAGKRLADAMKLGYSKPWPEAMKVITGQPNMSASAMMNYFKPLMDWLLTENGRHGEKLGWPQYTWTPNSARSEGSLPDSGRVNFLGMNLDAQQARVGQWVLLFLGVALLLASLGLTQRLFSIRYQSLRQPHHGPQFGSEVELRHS

B2 bradykinin receptor = target: T3, B2 bradykinin receptor (Homo sapiens, UniProt P30411); type: cell membranes, Membrane; details: chem-1; further: in other assays of this panel Not Active means under 50% inhibition at 10 µM
T3 sequence (P30411 whole entry): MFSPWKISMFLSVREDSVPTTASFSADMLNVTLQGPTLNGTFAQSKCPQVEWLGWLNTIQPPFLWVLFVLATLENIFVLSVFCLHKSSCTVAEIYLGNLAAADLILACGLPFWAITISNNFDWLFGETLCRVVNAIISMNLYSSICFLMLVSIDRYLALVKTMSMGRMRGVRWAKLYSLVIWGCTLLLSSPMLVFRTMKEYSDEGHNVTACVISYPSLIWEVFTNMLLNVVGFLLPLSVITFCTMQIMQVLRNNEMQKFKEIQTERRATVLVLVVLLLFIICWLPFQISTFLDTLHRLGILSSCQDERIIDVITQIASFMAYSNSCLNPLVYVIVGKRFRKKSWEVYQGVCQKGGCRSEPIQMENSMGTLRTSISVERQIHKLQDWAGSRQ

Cannabinoid receptor 1, sequence (P21554 whole entry): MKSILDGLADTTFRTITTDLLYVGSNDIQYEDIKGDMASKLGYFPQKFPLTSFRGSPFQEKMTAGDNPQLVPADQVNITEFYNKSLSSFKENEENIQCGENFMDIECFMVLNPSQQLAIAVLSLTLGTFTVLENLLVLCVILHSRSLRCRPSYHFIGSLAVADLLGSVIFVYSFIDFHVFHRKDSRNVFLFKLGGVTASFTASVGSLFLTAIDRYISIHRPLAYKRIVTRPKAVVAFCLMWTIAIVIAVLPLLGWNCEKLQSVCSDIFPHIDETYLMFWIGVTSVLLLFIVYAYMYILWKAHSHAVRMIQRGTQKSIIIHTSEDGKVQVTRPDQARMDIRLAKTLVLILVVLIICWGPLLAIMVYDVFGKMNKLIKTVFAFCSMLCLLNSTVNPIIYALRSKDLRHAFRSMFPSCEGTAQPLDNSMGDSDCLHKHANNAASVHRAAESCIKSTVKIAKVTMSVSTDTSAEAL
Tyrosine-protein kinase Lck, sequence (P06239 whole entry): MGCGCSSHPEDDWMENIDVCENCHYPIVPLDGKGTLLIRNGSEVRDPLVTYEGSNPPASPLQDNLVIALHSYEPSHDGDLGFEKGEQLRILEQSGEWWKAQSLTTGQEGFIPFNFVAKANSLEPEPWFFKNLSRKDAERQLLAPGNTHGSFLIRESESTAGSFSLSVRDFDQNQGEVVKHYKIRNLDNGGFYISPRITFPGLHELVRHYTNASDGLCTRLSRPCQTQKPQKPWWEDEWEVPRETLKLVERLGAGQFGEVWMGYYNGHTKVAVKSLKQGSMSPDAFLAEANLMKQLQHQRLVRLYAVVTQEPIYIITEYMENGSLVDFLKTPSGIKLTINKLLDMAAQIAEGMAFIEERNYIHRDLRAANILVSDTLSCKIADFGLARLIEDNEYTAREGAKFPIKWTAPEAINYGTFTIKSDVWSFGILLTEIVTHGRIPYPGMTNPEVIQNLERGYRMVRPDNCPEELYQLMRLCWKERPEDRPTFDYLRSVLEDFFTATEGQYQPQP
Delta-type opioid receptor, sequence (P41143 whole entry): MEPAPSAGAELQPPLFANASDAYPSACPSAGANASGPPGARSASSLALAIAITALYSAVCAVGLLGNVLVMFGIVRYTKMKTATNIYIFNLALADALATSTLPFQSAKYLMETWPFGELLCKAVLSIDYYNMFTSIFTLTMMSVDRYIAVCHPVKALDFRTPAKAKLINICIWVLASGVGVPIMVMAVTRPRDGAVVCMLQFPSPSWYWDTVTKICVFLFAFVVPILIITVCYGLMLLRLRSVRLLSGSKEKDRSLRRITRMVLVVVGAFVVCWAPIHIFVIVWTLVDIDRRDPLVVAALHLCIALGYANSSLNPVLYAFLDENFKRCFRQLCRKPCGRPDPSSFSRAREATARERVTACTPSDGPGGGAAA

With `CN1C(=O)OC(C)(C)C1=O` [TRIMETHADIONE] the IC50 [1] was “Not Active”, the Ki [1] was “Not Active” and the IC50 [2] was “Not Active”. For the same compound, the IC50 (Cannabinoid receptor 1) was “Not Active”, the IC50 [3] was “Not Active” and the IC50 (Adenosine receptor A3) was “Not Active”. For the same compound, the IC50 [4] was “Not Active”, the Ki [4] was “Not Active” and the IC50 [5] was “Not Active”. The IC50 (B2 bradykinin receptor) was “Not Active”.
For `CCC(C)(C)C(=O)O[C@H]1C[C@@H](C)C=C2C=C[C@H](C)[C@H](CC[C@@H]3C[C@@H](O)CC(=O)O3)[C@H]21` [SIMVASTATIN], the IC50 [1] was “Not Active”, the Ki [1] was “Not Active” and the IC50 [2] was “Not Active”. For the same compound, the IC50 (Cannabinoid receptor 1) was “Not Active”, the IC50 [3] was “Not Active” and the IC50 (Adenosine receptor A3) was “Not Active”. For the same compound, the IC50 [4] was “Not Active”, the Ki [4] was “Not Active” and the IC50 [5] was “Not Active”. The IC50 (B2 bradykinin receptor) was “Not Active”.
For `Cc1ccc(S(=O)(=O)NC(=O)NN2CCCCCC2)cc1` [TOLAZAMIDE], the IC50 [1] was “Not Active”, the Ki [1] was “Not Active” and the IC50 [2] was “Not Active”. The IC50 (Cannabinoid receptor 1) was “Not Active”, the IC50 [3] was “Not Active” and the IC50 (Adenosine receptor A3) was “Not Active”. The IC50 [4] was “Not Active”, the Ki [4] was “Not Active” and the IC50 [5] was “Not Active”. The IC50 (B2 bradykinin receptor) was “Not Active”.
For `CC(Cl)(Cl)Cl` [TRICHLOROETHANE], the IC50 [1] was “Not Active”, the Ki [1] was “Not Active” and the IC50 [2] was “Not Active”. For the same compound, the IC50 (Cannabinoid receptor 1) was “Not Active”, the IC50 [3] was “Not Active” and the IC50 (Adenosine receptor A3) was “Not Active”. For the same compound, the IC50 [4] was “Not Active”, the Ki [4] was “Not Active” and the IC50 [5] was “Not Active”. The IC50 (B2 bradykinin receptor) was “Not Active”.
For `CC(C)(C)NC[C@H](O)COc1cccc2c1CCCC2=O` [LEVOBUNOLOL], the IC50 [1] was “Not Active”, the Ki [1] was “Not Active” and the IC50 [2] was “Not Active”. For the same compound, the IC50 (Cannabinoid receptor 1) was “Not Active”, the IC50 [3] was “Not Active” and the IC50 (Adenosine receptor A3) was “Not Active”. For the same compound, the IC50 [4] was “Not Active”, the Ki [4] was “Not Active” and the IC50 [5] was “Not Active”. The IC50 (B2 bradykinin receptor) was “Not Active”.
With `CCN1CCCC1CNC(=O)c1cc(S(N)(=O)=O)ccc1OC` (stereo unspecified) [SULPIRIDE] the IC50 [1] was “Not Active”, the Ki [1] was “Not Active” and the IC50 [2] was “Not Active”. The IC50 (Cannabinoid receptor 1) was “Not Active”, the IC50 [3] was “Not Active” and the IC50 (Adenosine receptor A3) was “Not Active”. The IC50 [4] was “Not Active”, the Ki [4] was “Not Active” and the IC50 [5] was “Not Active”. The IC50 (B2 bradykinin receptor) was “Not Active”.
In the case of `Cc1cccc(C)c1NC(=O)C(C)N` (stereo unspecified) [TOCAINIDE], the IC50 [1] was “Not Active”, the Ki [1] was “Not Active” and the IC50 [2] was “Not Active”. The IC50 (Cannabinoid receptor 1) was “Not Active”, the IC50 [3] was “Not Active” and the IC50 (Adenosine receptor A3) was “Not Active”. For the same compound, the IC50 [4] was “Not Active”, the Ki [4] was “Not Active” and the IC50 [5] was “Not Active”. The IC50 (B2 bradykinin receptor) was “Not Active”.
With `CCOC(=O)C1=C(C)NC(C)=C(C(=O)OCC)C1c1ccccc1/C=C/C(=O)OC(C)(C)C` [LACIDIPINE] the IC50 [1] was “Not Active”, the Ki [1] was “Not Active” and the IC50 [2] was “Not Active”. The IC50 (Cannabinoid receptor 1) was “Not Active”, the IC50 [3] was “Not Active” and the pIC50 (Adenosine receptor A3; read-out: IC50) was 5.39. For the same compound, the pKi (Adenosine receptor A3; read-out: Ki) was 5.64, the IC50 [4] was “Not Active” and the Ki [4] was “Not Active”. For the same compound, the IC50 [5] was “Not Active” and the IC50 (B2 bradykinin receptor) was “Not Active”.
With `C=CCc1ccc2c(c1)OCO2` [SAFROLE] the IC50 [1] was “Not Active”, the Ki [1] was “Not Active” and the IC50 [2] was “Not Active”. The IC50 (Cannabinoid receptor 1) was “Not Active”, the IC50 [3] was “Not Active” and the IC50 (Adenosine receptor A3) was “Not Active”. The IC50 [4] was “Not Active”, the Ki [4] was “Not Active” and the IC50 [5] was “Not Active”. The IC50 (B2 bradykinin receptor) was “Not Active”.
